“And” between values parts separate entries of the source, which are not always exact repeats. Identical values can stand only once. Like-named read-outs stand apart in the source and are kept apart here.
What was measured:
[1] = Cytotoxicity, inhibition of CEM/TK– cell proliferation; type: cell-based; conditions: human, CEM/TK– cells (CD4+ T-cells), read-out: toxicity CC50
HIV-2 (ROD) [2] = test: Anti-HIV replication assay, HIV-2 (ROD) in wild-type CEM/0 cells; type: cell-based; conditions: for selectivity index (SI): CC50/EC50, HIV-2 (ROD) in CEM cells; for EC50: Human immunodeficiency virus 2, CCRF-CEM, read-out: HIV-2 (ROD) EC50
Procedure: (§1) Inhibition of HIV-1(HE)- and HIV-2(ROD)-induced cytopathogenicity in wild-type CEM/0 CEM CD4^+ T-cells and thymidine kinase-deficient CEM/TK^– cell cultures was measured in microtiter 96-well plates containing ∼3 × 10^5 CEM cells/mL infected with 100 CCID50 of HIV per milliliter and containing appropriate dilutions of the test compounds. After 4–5 days of incubation at 37 °C in a CO2-controlled humidified atmosphere, virus-induced cellular effects and syncytia cell formation were examined microscopically.

[3] = Cytotoxicity, inhibition of CEM cell proliferation; type: cell-based; conditions: human, CEM cells (CD4+ T-cells), read-out: toxicity CC50
HIV-1 (HE) = test: Anti-HIV replication assay, HIV-1 (HE) in wild-type CEM/0 cells; type: cell-based; conditions: for EC50: Human immunodeficiency virus 1, CCRF-CEM, wild-type CEM/0 cells, mean ± SD, n = 2–3, read-out: HIV-1 (HE) EC50
Procedure: as §1, with “microscopically. The EC50 (50% effective concentration) was defined as the compound concentration required to inhibit HIV-induced giant cell formation by 50%.” for “microscopically.”

HIV-2 (ROD) [4] = test: Anti-HIV replication assay, HIV-2 (ROD) in thymidine kinase-deficient CEM/TK– cells; type: cell-based; conditions: for selectivity index (SI): CC50/EC50, HIV-2 (ROD) in CEM/TK– cells; for EC50: Human immunodeficiency virus 2, CEM/TK– cells, mean ± SD, n = 2–3, read-out: CEM/TK– HIV-2 (ROD) EC50
Procedure: as §1

pig liver esterase (PLE) = test: Enzymatic hydrolysis with pig liver esterase (PLE); type: in vitro ADME; conditions: pig liver esterase in phosphate buffer, PLE in phosphate buffer pH 7.3, 37 °C, read-out: PLE t1/2 (converted)
Procedure: To confirm the enzymatic hydrolysis process, TetraPPPPro-nucleotides 4–9 bearing different kinds of lipophilic groups attached to the δ-phosph(on)ate group were incubated with PLE in phosphate buffer.
Then, 833 μL of 50 mM phosphate buffer (pH 7.3) and 125 μL of DMSO were added to the 6.0 mM hydrolysis solutions. The reaction was started by addition of 62.5 μL of PLE in phosphate buffer (100 units/mL), and the mixture was incubated at 800 rpm at 37 °C in a thermomixer. (1). At different times, aliquots (75 μL) were taken and stopped by the addition of […] of MeOH. The mixture was stored in liquid nitrogen. When testing, samples were warmed up to room temperature, and 60 μL of the liquid was directly injected into HPLC analysis. (2). 40 μL for each extraction was stored in liquid nitrogen. When testing, samples were warmed up to room temperature, and 30 μL of the liquid was taken and injected into the analytical RP-18-HPLC instrument. The calculation of t1/2 was performed analogously to that for the chemical hydrolysis studies.

[5] = Chemical hydrolysis in aqueous buffers (PBS pH 7.3 / 8.0, citrate buffer pH 2.0), RP18-HPLC; type: physicochemical; conditions: phosphate buffered saline; 25 mM PBS, pH 7.3, 37 °C; read-out: PBS pH 7.3 t1/2 (converted)
Procedure: All metabolite mixtures were analyzed and quantified by means of analytical RP18-HPLC (UV detection).
The solution was incubated at 37 °C in a thermomixer. […] for each extraction and stored at −30 °C. When testing, samples were warmed up to room temperature, and 25 or 20 μL of the liquid was taken and injected into the analytical RP-18-HPLC instrument. Further aliquots were taken for monitoring the kinetic hydrolysis.
5.88 g of citric acid and 3.58 g of NaCl were dissolved in 82 mL of hydrochloric acid (0.1 mol/L). Then, sodium hydroxide was added to adjust the pH to 2.0.

[6] = Hydrolysis in CEM/0 cell extracts; type: in vitro ADME; conditions: human, 37 °C, read-out: CEM/0 cell extracts t1/2 (converted)
Procedure: Next, TetraPPPPro-nucleotides 4–9 were incubated in human CD4^+ T-lymphocyte CEM/0 cell extracts to study their stability and identify the hydrolysis products.
CEM cells were grown in RPMI-1640-based cell culture medium to a final density of ∼3 × 10^6 cells/mL. Cells were centrifuged for 10 min at 1250 rpm at 4 °C and washed twice with cold PBS, and the pellet was resuspended at 10^8 cells/mL and sonicated (Hielscher Ultrasound Techn., 100% amplitude, 3·times for 10 s) to destroy cell integrity. Next, the resulting cell suspension was centrifuged at 10,000 rpm to remove cell debris. Finally, the supernatant was divided into aliquots and frozen at −80 °C.
6.0 mM hydrolysis solutions of compounds 4–9 were prepared from 21 μL of 50 mM DMSO stock solutions and 154 μL of DMSO. Two different samples, including 10 μL of water and 10 μL of 6.0 mM hydrolysis solution, were prepared in 2 mL Eppendorf vials. Next, 50 μL of human CEM cell extracts or 50 μL of human citrate plasma were added to the mixture, the reaction was started, and the mixture was incubated at 37 °C for different time periods. The reactions were stopped by the addition of 150 μL of MeOH. The resulting suspension was kept on ice for 5 min, followed by defrosting and centrifugation at 14,000 rpm (Heraeus, Biofuge Pico) for 22 min. The supernatants (80 or 60 μL) were directly injected into HPLC. The calculation of t1/2 was performed analogously to that for the chemical hydrolysis studies.

[7] = cited from earlier work
[8] = wild-type CEM/0 cells, mean ± SD, n = 2–3

Row | Compound | CC50 [1] | selectivity index (SI) (HIV-2 (ROD) [2]) | EC50 (HIV-2 (ROD) [2]; [8]) | CC50 [3] | EC50 (HIV-1 (HE)) | selectivity index (SI) (HIV-2 (ROD) [4]) | EC50 (HIV-2 (ROD) [4]) | increase in antiviral potency as compared to d4T (HIV-2 (ROD) [2]; HIV-2, CEM/0 cells) | increase in antiviral potency as compared to d4T (HIV-1 (HE); HIV-1, CEM/0 cells) | half-life at 0.45 mM (pig liver esterase (PLE)) | half-life at 1.9 mM [5] | half-life at 0.86 mM [6] | improvement of antiviral activity as compared to the parent d4T (HIV-2 (ROD) [4]; HIV-2, CEM/TK– cells) | PBS pH 7.3 t1/2 ([7]; PBS) | PBS pH 7.3 t1/2 ([7]; buffer) | EC50 (HIV-2 (ROD) [2])
1 | CCCCCCCCCCCCCCCCCCOP(=O)(OCCCCCCCCCCCCCCCCCC)OP(=O)(O)OP(=O)(O)OP(=O)(O)OC[C@@H]1C=C[C@H](n2cc(C)c(=O)[nH]c2=O)O1 [4c, δ-(Alkyl-C18; alkyl-C18)-d4T4P] | 84100 nM | 24 | 2090 ± 580 nM | 50000 nM | 1990 ± 900 nM | 13 | 6180 ± 1000 nM | – | – | – | – | – | – | – | – | –
2 | CCCCCCCCCCCCCCCCCCP(=O)(OCc1ccc(OC(=O)CCCC)cc1)OP(=O)(O)OP(=O)(O)OP(=O)(O)OC[C@@H]1C=C[C@H](n2cc(C)c(=O)[nH]c2=O)O1 (stereo partly drawn) [compound 7, δ-(AB-C4)-δ-C-(alkyl-C18)-d4T4P] | 36900 nM | 4330 | 9.1 ± 7.7 nM | 39400 nM | 9.2 ± 8.2 nM | 5700 and 5677 | 6.5 ± 5.7 nM | 107 fold | 36 fold | 0.5 h | > 600 h | > 8 h | – | – | – | –
3 | CCCCCCCCCCCCCCCCCCOP(=O)(OCC(CC)CCCC)OP(=O)(O)OP(=O)(O)OP(=O)(O)OC[C@@H]1C=C[C@H](n2cc(C)c(=O)[nH]c2=O)O1 (stereo partly drawn) [4e, δ-(Alkyl-C8; alkyl-C18)-d4T4P] | 48900 nM | 139 | 320 ± 90 nM | 44700 nM | 440 ± 170 nM | 114 | 430 ± 210 nM | – | – | – | 325 h | – | – | – | – | –
4 | CCCCCCCCCCCCOP(=O)(OCCCCCCCCCCCC)OP(=O)(O)OP(=O)(O)OP(=O)(O)OC[C@@H]1C=C[C@H](n2cc(C)c(=O)[nH]c2=O)O1 [4b, δ-(Alkyl-C12; alkyl-C12)-d4T4P] | 84900 nM | 405 | 110 ± 50 nM | 44600 nM | 170 ± 100 nM | 2927 | 29 ± 37 nM | – | – | – | 215 h | – | > 1700 fold | – | – | –
5 | CCCCCCCCCCCCCCCCCCOP(=O)(OCc1ccc(OC(=O)CCCC)cc1)OP(=O)(O)OP(=O)(O)OC[C@@H]1C=C[C@H](n2cc(C)c(=O)[nH]c2=O)O1 (stereo partly drawn) [2a, γ-(AB-C4; C18)-d4TTP] | – | – | – | – | – | – | – | – | – | – | – | – | – | 237 h | – | –
6 | CCCCCCCCCCCCCCCCCCP(=O)(OCC(CC)CCCC)OP(=O)(O)OP(=O)(O)OP(=O)(O)OC[C@@H]1C=C[C@H](n2cc(C)c(=O)[nH]c2=O)O1 (stereo partly drawn) [5b, δ-(Alkyl-C8)-δ-C-(alkyl-C18)-d4T4P] | 50000 nM | >77 | 1300 ± 640 nM | > 100000 nM | 1440 ± 700 nM | 312 | 160 ± 130 nM | – | – | – | > 1000 h | – | – | – | – | –
7 | β-(AB-C4; C18)-d4TDP [33a] | – | – | – | – | – | – | – | – | – | – | – | – | – | – | 406 h | –
8 | CCCCCCCCCCCCCCCCOC(=O)Oc1ccc(COP(=O)(OCc2ccc(OC(=O)CCCC)cc2)OP(=O)(O)OP(=O)(O)OP(=O)(O)OC[C@@H]2C=C[C@H](n3cc(C)c(=O)[nH]c3=O)O2)cc1 (stereo partly drawn) [compound 9, δ-(AB-C4; ACB-C16)-d4T4P] | 50000 nM | 365 | 210 ± 110 nM | 76800 nM | 170 ± 50 nM | 5 | 9710 ± 4780 nM | – | – | 1.03 h | 25 h | 2.58 h | – | – | – | –
9 | β-(alkyl-C4)-β-C-(alkyl-C18)-d4TDP | – | – | – | – | – | – | – | – | – | – | – | – | – | – | > 3000 h | –
10 | β-(AB-C4)-β-C-(C18)-d4TDP [33b] | – | – | – | – | – | – | – | – | – | – | – | – | – | – | > 1000 h | –
11 | Cc1cn([C@H]2C=C[C@@H](CO)O2)c(=O)[nH]c1=O [d4T, 3′-deoxy-2′,3′-didehydrothymidine, reference compound] | > 50000 nM | – | – | > 50000 nM | 330 ± 130 nM | – | > 50000 nM | – | – | – | – | – | – | – | – | 970 ± 500 nM
